{"source": "PubChem BioAssay (NCI)", "assay_in_all_cases": "NCI-60 cell line screen, 48 h", "key": {"NCI-H23 lung": {"test_system": "NCI-H23 lung"}, "NCI-H460 lung": {"test_system": "NCI-H460 lung"}, "NCI-H522 lung": {"test_system": "NCI-H522 lung"}, "NCI/ADR-RES ovarian": {"test_system": "NCI/ADR-RES ovarian"}, "OVCAR-3 ovarian": {"test_system": "OVCAR-3 ovarian"}, "OVCAR-4 ovarian": {"test_system": "OVCAR-4 ovarian"}, "OVCAR-5 ovarian": {"test_system": "OVCAR-5 ovarian"}, "OVCAR-8 ovarian": {"test_system": "OVCAR-8 ovarian"}, "PC-3 prostate": {"test_system": "PC-3 prostate"}, "RPMI-8226 leukemia": {"test_system": "RPMI-8226 leukemia"}, "RXF 393 renal": {"test_system": "RXF 393 renal"}, "SF-268 CNS": {"test_system": "SF-268 CNS"}, "SF-295 CNS": {"test_system": "SF-295 CNS"}, "SF-539 CNS": {"test_system": "SF-539 CNS"}, "SK-MEL-2 melanoma": {"test_system": "SK-MEL-2 melanoma"}, "SK-MEL-28 melanoma": {"test_system": "SK-MEL-28 melanoma"}, "SK-MEL-5 melanoma": {"test_system": "SK-MEL-5 melanoma"}, "SK-OV-3 ovarian": {"test_system": "SK-OV-3 ovarian"}, "SN12C renal": {"test_system": "SN12C renal"}, "SNB-19 CNS": {"test_system": "SNB-19 CNS"}, "SNB-75 CNS": {"test_system": "SNB-75 CNS"}, "SR leukemia": {"test_system": "SR leukemia"}, "SW-620 colon": {"test_system": "SW-620 colon"}, "T-47D breast": {"test_system": "T-47D breast"}, "TK-10 renal": {"test_system": "TK-10 renal"}, "U251 CNS": {"test_system": "U251 CNS"}, "UACC-257 melanoma": {"test_system": "UACC-257 melanoma"}, "UACC-62 melanoma": {"test_system": "UACC-62 melanoma"}, "UO-31 renal": {"test_system": "UO-31 renal"}}, "note": "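Step 1: Grow cells in 96-well plates. Step 2: Expose to compound for 48 hours at 5 concentrations. Step 3: Interpolate endpoints linearly; if unreached, use highest concentration. GI50 = concentration required for 50% inhibition of growth. The concentration for full growth arrest is given as TGI.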"}
{"smiles": "O=C1/C(=C/c2ccc(O)c(O)c2)COc2ccc(-c3ccccc3)cc21", "values": [{"measurement": "GI50", "setting": "NCI-H23 lung", "result": 2.28, "unit": "µM"}, {"measurement": "TGI", "setting": "NCI-H23 lung", "result": 10.9, "unit": "µM"}, {"measurement": "GI50", "setting": "NCI-H460 lung", "result": 1.99, "unit": "µM"}, {"measurement": "TGI", "setting": "NCI-H460 lung", "result": 5.67, "unit": "µM"}, {"measurement": "GI50", "setting": "NCI-H522 lung", "result": 0.334, "unit": "µM"}, {"measurement": "TGI", "setting": "NCI-H522 lung", "result": 1.16, "unit": "µM"}, {"measurement": "GI50", "setting": "NCI/ADR-RES ovarian", "result": 2.24, "unit": "µM"}, {"measurement": "TGI", "setting": "NCI/ADR-RES ovarian", "result": "> 26.8", "unit": "µM"}, {"measurement": "GI50", "setting": "OVCAR-3 ovarian", "result": 0.874, "unit": "µM"}, {"measurement": "TGI", "setting": "OVCAR-3 ovarian", "result": 3.48, "unit": "µM"}, {"measurement": "GI50", "setting": "OVCAR-4 ovarian", "result": 2.2, "unit": "µM"}, {"measurement": "TGI", "setting": "OVCAR-4 ovarian", "result": 10.2, "unit": "µM"}, {"measurement": "GI50", "setting": "OVCAR-5 ovarian", "result": 3.71, "unit": "µM"}, {"measurement": "TGI", "setting": "OVCAR-5 ovarian", "result": 16.1, "unit": "µM"}, {"measurement": "GI50", "setting": "OVCAR-8 ovarian", "result": 3.29, "unit": "µM"}, {"measurement": "TGI", "setting": "OVCAR-8 ovarian", "result": 22, "unit": "µM"}, {"measurement": "GI50", "setting": "PC-3 prostate", "result": 1.8, "unit": "µM"}, {"measurement": "TGI", "setting": "PC-3 prostate", "result": 10.7, "unit": "µM"}, {"measurement": "GI50", "setting": "RPMI-8226 leukemia", "result": 0.187, "unit": "µM"}, {"measurement": "TGI", "setting": "RPMI-8226 leukemia", "result": 0.588, "unit": "µM"}, {"measurement": "GI50", "setting": "RXF 393 renal", "result": 1.71, "unit": "µM"}, {"measurement": "TGI", "setting": "RXF 393 renal", "result": 3.86, "unit": "µM"}, {"measurement": "GI50", "setting": "SF-268 CNS", "result": 2.11, "unit": "µM"}, {"measurement": "TGI", "setting": "SF-268 CNS", "result": 7.33, "unit": "µM"}, {"measurement": "GI50", "setting": "SF-295 CNS", "result": 2.84, "unit": "µM"}, {"measurement": "TGI", "setting": "SF-295 CNS", "result": 13, "unit": "µM"}, {"measurement": "GI50", "setting": "SF-539 CNS", "result": 1.91, "unit": "µM"}, {"measurement": "TGI", "setting": "SF-539 CNS", "result": 3.89, "unit": "µM"}, {"measurement": "GI50", "setting": "SK-MEL-2 melanoma", "result": 3.64, "unit": "µM"}, {"measurement": "TGI", "setting": "SK-MEL-2 melanoma", "result": 10.7, "unit": "µM"}, {"measurement": "GI50", "setting": "SK-MEL-28 melanoma", "result": 1.6, "unit": "µM"}, {"measurement": "TGI", "setting": "SK-MEL-28 melanoma", "result": 3.07, "unit": "µM"}, {"measurement": "GI50", "setting": "SK-MEL-5 melanoma", "result": 1.57, "unit": "µM"}, {"measurement": "TGI", "setting": "SK-MEL-5 melanoma", "result": 3.77, "unit": "µM"}, {"measurement": "GI50", "setting": "SK-OV-3 ovarian", "result": 4.77, "unit": "µM"}, {"measurement": "TGI", "setting": "SK-OV-3 ovarian", "result": 37.7, "unit": "µM"}, {"measurement": "GI50", "setting": "SN12C renal", "result": 2.47, "unit": "µM"}, {"measurement": "TGI", "setting": "SN12C renal", "result": 10.6, "unit": "µM"}, {"measurement": "GI50", "setting": "SNB-19 CNS", "result": 3.51, "unit": "µM"}, {"measurement": "TGI", "setting": "SNB-19 CNS", "result": 14.7, "unit": "µM"}, {"measurement": "GI50", "setting": "SNB-75 CNS", "result": 2.98, "unit": "µM"}, {"measurement": "TGI", "setting": "SNB-75 CNS", "result": 11.6, "unit": "µM"}, {"measurement": "GI50", "setting": "SR leukemia", "result": 0.616, "unit": "µM"}, {"measurement": "GI50", "setting": "SW-620 colon", "result": 0.875, "unit": "µM"}, {"measurement": "TGI", "setting": "SW-620 colon", "result": 2.46, "unit": "µM"}, {"measurement": "GI50", "setting": "T-47D breast", "result": 0.959, "unit": "µM"}, {"measurement": "TGI", "setting": "T-47D breast", "result": 3.61, "unit": "µM"}, {"measurement": "GI50", "setting": "TK-10 renal", "result": 1.73, "unit": "µM"}, {"measurement": "TGI", "setting": "TK-10 renal", "result": 6.91, "unit": "µM"}, {"measurement": "GI50", "setting": "U251 CNS", "result": 1.45, "unit": "µM"}, {"measurement": "TGI", "setting": "U251 CNS", "result": 3.38, "unit": "µM"}, {"measurement": "GI50", "setting": "UACC-257 melanoma", "result": 3.89, "unit": "µM"}, {"measurement": "TGI", "setting": "UACC-257 melanoma", "result": 16.9, "unit": "µM"}, {"measurement": "GI50", "setting": "UACC-62 melanoma", "result": 2.01, "unit": "µM"}, {"measurement": "TGI", "setting": "UACC-62 melanoma", "result": 5.78, "unit": "µM"}, {"measurement": "GI50", "setting": "UO-31 renal", "result": 1.22, "unit": "µM"}, {"measurement": "TGI", "setting": "UO-31 renal", "result": 2.93, "unit": "µM"}]}
